# Key:
# [1] = system: PC3/PSC27 xenografts; experiment: DNA damage and apoptosis of cancer cells in PC3/PSC27 xenografts; assay type: in vivo, mice; conditions: tumors dissected 7 days after initiation of treatment
# [2] = system: PC3-only tumors; experiment: Preclinical treatment trial, PC3-only tumor volume; assay type: in vivo, mice; conditions: single agents; absence of stromal cells
# Procedure: All experimental mouse experiments were performed strictly following the relevant regulations of the experimental animals. Immuno-deficient mice(NOD-SCID mice, ICR) (body weight about 25 g) aged 6-8 weeks were used for animal experiments related to the present patent. Stromal cells PSC27 and epithelial cells PC3 were mixed at a predetermined ratio of 1:4, and each graft contained 1.25×10^6 cells for tissue remodeling. The xenograft tumors were implanted into mice by subcutaneous transplantation, and the animals were euthanized 8 weeks after the end of the transplantation surgery. Tumor volume was calculated according to the following formula: V=(π/6)×((1+w)/2)^3 (V, volume; 1, length; w, width). In a preclinical treatment trial, subcutaneously transplanted mice were fed with a standard experimental diet, after 2 weeks chemotherapy drugs mitoxantrone (MIT, dose: 0.2 mg/kg) and/or Rutin (500 μl, dose: 10 mg/kg), Rapamycin (500 μl, dose: 10 mg/kg) via intraperitoneal administration. The time points are as follows: all three drugs were administered to mice on the first day of the third, fifth and seventh weeks. A total of 3 cycles of administration was carried out throughout the course of treatment, and each cycle lasted for 2 weeks. After the course of treatment, mouse tumors were harvested for volume measurement and histological analysis. […] The chemotherapy experiment ended at the end of the 8th week, and the mice were dissected immediately after sacrifice, and the xenograft tumors were collected and used for pathological system analysis.
# [3] = system: SASP factors, p16^INK4a, p21^CIP1; experiment: qRT-PCR of SASP factors and senescence markers in tumor-bearing sites; assay type: in vivo, mice
# Text: Varying expression levels of transcripts between the groups of a set of typical SASP molecules in tumor-bearing sites of mice according to the detection and analysis of fluorescent quantitative PCR (qRT-PCR). Data in each group is normalized for the sample with the lowest expression value within the group. IL6, IL8, AREG and ILla are included. […] Varying expression levels of transcripts between the groups of another set of typical SASP molecules in tumor-bearing sites of mice according to the detection and analysis of fluorescent quantitative PCR (qRT-PCR). Data in each group is normalized for the sample with the lowest expression value within the group. MMP1, MMP3, ANGPTL4 and SPINK1 are included. […] Varying expression levels of transcripts between the groups of a set of cellular senescence-specific biomarkers in tumor-bearing sites of mice according to the detection and analysis of fluorescent quantitative PCR (qRT-PCR). […] After the reaction was completed, the amplification of each gene was checked by software analysis, the corresponding threshold cycle number was derived, and the relative expression of each gene was calculated using the 2-ΔΔCt method. The peak and waveform of the melting curve was analyzed to determine whether the obtained amplification product was a specific single target fragment.
# [4] = system: EREG; experiment: ELISA of circulating serum SASP proteins; assay type: in vivo, mice; conditions: mouse serum
# Procedure: (§1) FIG. 41. Circulating serum proteins of SASP typical factors in mice were examined using ELISA. Left, AREG. Right, EREG. […] The time points are as follows: all three drugs were administered to mice on the first day of the third, fifth and seventh weeks. A total of 3 cycles of administration was carried out throughout the course of treatment, and each cycle lasted for 2 weeks. After the course of treatment, mouse tumors were harvested for volume measurement and histological analysis. […] The chemotherapy experiment ended at the end of the 8th week, and the mice were dissected immediately after sacrifice, and the xenograft tumors were collected and used for pathological system analysis. […] For alternative chemotherapeutics, vincristine or vinblastine (dose: 1.0 mg/kg) is administered intraperitoneally.
# [5] = system: PC3/PSC27 tumors; experiment: SA-β-Gal staining of PC3/PSC27 tumor tissue; assay type: in vivo, mice; conditions: PC3/PSC27 tumor lesions
# Procedure: Comparison of cell senescence in PC3/PSC27 tumor-bearing animal lesions in preclinical experiments. Representative pictures after SA-β-Gal staining. […] Senescence-associated β-galactosidase (SA-β-Gal) staining was performed following a previously reported procedure (Debacq-Chainiaux et al., 2009). Briefly, cells in culture dishes were washed with PBS and fixed at room temperature. Cells were fixed in 2% formaldehyde and 0.2% glutaraldehyde for 3 minutes. SA-β-Gal was used for staining with freshly prepared staining solution overnight at 37° C. Images were taken on the next day and the percentage of positive cells per unit area was calculated.
# [6] = system: AREG; experiment: ELISA of circulating serum SASP proteins; assay type: in vivo, mice; conditions: mouse serum
# Procedure: as §1
# [7] = system: PC3/PSC27 tumors; experiment: Preclinical treatment trial, PC3/PSC27 xenograft tumor volume; assay type: in vivo, mice
# [8] = system: MDA-MB-231/HBF1203 tumors; experiment: Breast cancer xenograft treatment trial; assay type: in vivo, mice; conditions: end of 8th week
# [9] = system: IL8 (interleukin 8); experiment: NMA library screen: expression of SASP factor IL8 in PSC27 cells; assay type: cell-based, human; conditions: senescent PSC27 cells
# [10] = system: PC3/PSC27 tumors; experiment: Xenografts of PC3 with PSC27 sublines (naive, senescent, pretreated); assay type: in vivo; conditions: PC3 + PSC27^SEN recombinants, SCID mice, 8 weeks, p<0.0001
# [11] = system: p65 and p50 (NF-κB); experiment: Immunoblot after separation of the nucleoplasm, PSC27 cells; assay type: cell-based, human
# Procedure: Immunoblot analysis of cell lysates of PSC27 cells upon BELO and/or rutin intervention after separation of the nucleoplasm. C, cytoplasmic; N; Nuclear. Lamin A/C, loading control for nuclear proteins. GAPDH, loading control for cytoplasmic proteins. Cell lysate-derived proteins were separated using NuPAGE 4-12% Bis-Tris gel and transferred to nitrocellulose membranes (Life Technologies). The blot was blocked with 5% skimmed milk for 1 h at room temperature, incubated overnight at 4° C. with the desired primary antibody at the manufacturer's protocol concentration, and then incubated with horseradish peroxidase-conjugated secondary antibody (Santa Cruz) for 1 h. Blot signal detection was carried out with enhanced chemiluminescence (ECL) detection reagent (Millipore) according to the manufacturer's protocol, and ImageQuant LAS 400 Phospho-Imager (GE Healthcare) was used. As a standard protein marker, PageRuler Plus Prestained Protein Ladder (no. 26619) from Thermo Fisher Scientific was used by the inventors.
# [12] = system: PC3 cells; experiment: Dose-response curves of PC3 cells with PSC27-BLEO CM exposed to MIT; assay type: cell-based, human; conditions: PC3 exposed to MIT at 0.1-1.0 μM; rutin 100 μM
# [13] = system: SASP factors; experiment: qRT-PCR of typical SASP factors in BLEO-induced senescent PSC27 cells; assay type: cell-based, human; conditions: IL6, IL8, IL1a, IL1β, CXCL3, MMP3, GM-CSF, 20-100 μM tested
# [14] = system: PSC27 cells; experiment: RNA-seq / GSEA of PSC27 cells; assay type: cell-based, human
# Procedure: Whole-transcriptome sequencing was performed on the primary human prostate stromal cell line PSC27 under different treatment conditions. Total RNA samples were obtained from stromal cells. Their integrity was verified by Bioanalyzer 2100 (Agilent), RNA was sequenced by Illumina HiSeq X10, and gene expression levels were quantified by software package […]/). Briefly, rRNA was depleted from RNA samples with the RiboMinus Eukaryote Kit (Qiagen, Valencia, CA, USA); and according to the manufacturer's instructions, TruSeq Stranded Total RNA Preparation Kits (Illumina, San Diego, CA, USA) was used to construct a strand-specific RNA-seq library before deep sequencing. Paired-end transcriptomic reads were mapped to a reference genome (GRCh38/hg38), and reference-annotation was performed from Gencode v27 using the Bowtie tool. Duplicate reads were identified using the picard Tools (1.98) script to mark duplicates (https://github.com/broadinstitute/picard), and only non-duplicate reads were retained. Reference splice junctions were provided by reference transcriptome (Ensembl Build 73). FPKM values were calculated with Cufflinks, and Cufflinks maximum likelihood estimation function was used to call differential gene expression. […] Next, Trim Galore (v0.3.0) (http://www.bioinformatics.babraham.ac.uk/projects/trim_galore/) was used to trim the reads, while the quality assessment was carried out by using FastQC (v0.10.0) (http://www.bioinformatics.bbsrc.ac.uk/projects/fastqc/). Subsequently, DAVID bioinformatics platform ( ) and ingenuity Pathways Analysis (IPA) program (http://www.ingenuity.com/index.html) were used. A preliminary analysis of the raw data was performed on a free online platform, Majorbio I-Sanger Cloud Platform (www.i-sanger.com) and the raw data were deposited in the NCBI Gene Expression Omnibus (GEO) database with access code GSE156448. Based on the data obtained from the preliminary analysis of RNA-seq, after analyzing and comparing each differentially expressed significant gene, the genes were sorted using the “wald statistics” obtained from DESeq2. GSEA was performed on the sorting lists of all planning gene sets available in MSigDB (http://software.broadinstitute.org/gsea/msigdb). DESeq2 independent filtering was based on the average of normalized read counts to select genes with very low expression levels. The SASP and GSEA signature were as described in our previous publication (Zhang et al., 2018a).
# [15] = system: PSC27 cells; experiment: SA-β-Gal staining of PSC27 cells; assay type: cell-based, human; conditions: BLEO 50 μg/ml induces senescence, rutin tested on proliferating and BLEO-induced senescent cells
# [16] = system: PSC27 cells; experiment: BrdU incorporation of PSC27 cells; assay type: cell-based, human; conditions: BLEO 50 μg/ml induces senescence, rutin tested on proliferating and BLEO-induced senescent cells
# [17] = system: PSC27 cells; experiment: ROS production in PSC27 cells with DCFH-DA; assay type: cell-based, human
# Text: FIG. 23. Measurement of Reactive Oxygen Species (ROS) production in PSC27 cells under various conditions with DCFH-DA, a fluorescent reagent. Left, representative images, scale bar, […]; Right, comparative statistics.
# [18] = system: PC3, DU145, M12 and LNCaP; experiment: Proliferation, migration and invasion of prostate cancer cells cultured with PSC27 conditioned media; assay type: cell-based, human; conditions: rutin final concentration 100 μM
# [19] = system: ATM, TAK1, p38MAPK, PI3K/Akt/mTOR, IL8; experiment: Immunoblot of DDR pathways and SASP expression in PSC27 cells; assay type: cell-based, human; conditions: for ATM activation / phosphorylation: BLEO-induced senescence, with or without rutin
# [20] = system: PC3, DU145, M12 and LNCaP; experiment: Drug resistance of prostate cancer cells cultured with PSC27 conditioned media; assay type: cell-based, human; conditions: rutin final concentration 100 μM
# [21] = system: TRAF6-TAK1 interaction; experiment: p-TAK1-mediated IP and immunoblot in PSC27 cells; assay type: cell-based, human; conditions: BLEO and/or rutin
# [22] = molecular target: ATM and TRAF6 interaction (Homo sapiens, UniProt Q13315+Q9Y4K3); experiment: p-ATM-mediated IP and immunoblot in PSC27 cells; assay type: cell-based; conditions: BLEO and/or rutin
# [23] = molecular target: ATM and HIF1α interaction (Homo sapiens, UniProt Q13315+Q16665); experiment: p-ATM-mediated IP and immunoblot in PSC27 cells; assay type: cell-based; conditions: BLEO and/or rutin
# [24] = FIG. 14, senescence induction and rutin intervention, P<0.01, Fold change>4
# [25] = senescent PSC27 upon rutin, 2-fold change of log 2-based, p<0.01
# ATM and HIF1α interaction, sequence (Q13315 2-3056 limits assumed): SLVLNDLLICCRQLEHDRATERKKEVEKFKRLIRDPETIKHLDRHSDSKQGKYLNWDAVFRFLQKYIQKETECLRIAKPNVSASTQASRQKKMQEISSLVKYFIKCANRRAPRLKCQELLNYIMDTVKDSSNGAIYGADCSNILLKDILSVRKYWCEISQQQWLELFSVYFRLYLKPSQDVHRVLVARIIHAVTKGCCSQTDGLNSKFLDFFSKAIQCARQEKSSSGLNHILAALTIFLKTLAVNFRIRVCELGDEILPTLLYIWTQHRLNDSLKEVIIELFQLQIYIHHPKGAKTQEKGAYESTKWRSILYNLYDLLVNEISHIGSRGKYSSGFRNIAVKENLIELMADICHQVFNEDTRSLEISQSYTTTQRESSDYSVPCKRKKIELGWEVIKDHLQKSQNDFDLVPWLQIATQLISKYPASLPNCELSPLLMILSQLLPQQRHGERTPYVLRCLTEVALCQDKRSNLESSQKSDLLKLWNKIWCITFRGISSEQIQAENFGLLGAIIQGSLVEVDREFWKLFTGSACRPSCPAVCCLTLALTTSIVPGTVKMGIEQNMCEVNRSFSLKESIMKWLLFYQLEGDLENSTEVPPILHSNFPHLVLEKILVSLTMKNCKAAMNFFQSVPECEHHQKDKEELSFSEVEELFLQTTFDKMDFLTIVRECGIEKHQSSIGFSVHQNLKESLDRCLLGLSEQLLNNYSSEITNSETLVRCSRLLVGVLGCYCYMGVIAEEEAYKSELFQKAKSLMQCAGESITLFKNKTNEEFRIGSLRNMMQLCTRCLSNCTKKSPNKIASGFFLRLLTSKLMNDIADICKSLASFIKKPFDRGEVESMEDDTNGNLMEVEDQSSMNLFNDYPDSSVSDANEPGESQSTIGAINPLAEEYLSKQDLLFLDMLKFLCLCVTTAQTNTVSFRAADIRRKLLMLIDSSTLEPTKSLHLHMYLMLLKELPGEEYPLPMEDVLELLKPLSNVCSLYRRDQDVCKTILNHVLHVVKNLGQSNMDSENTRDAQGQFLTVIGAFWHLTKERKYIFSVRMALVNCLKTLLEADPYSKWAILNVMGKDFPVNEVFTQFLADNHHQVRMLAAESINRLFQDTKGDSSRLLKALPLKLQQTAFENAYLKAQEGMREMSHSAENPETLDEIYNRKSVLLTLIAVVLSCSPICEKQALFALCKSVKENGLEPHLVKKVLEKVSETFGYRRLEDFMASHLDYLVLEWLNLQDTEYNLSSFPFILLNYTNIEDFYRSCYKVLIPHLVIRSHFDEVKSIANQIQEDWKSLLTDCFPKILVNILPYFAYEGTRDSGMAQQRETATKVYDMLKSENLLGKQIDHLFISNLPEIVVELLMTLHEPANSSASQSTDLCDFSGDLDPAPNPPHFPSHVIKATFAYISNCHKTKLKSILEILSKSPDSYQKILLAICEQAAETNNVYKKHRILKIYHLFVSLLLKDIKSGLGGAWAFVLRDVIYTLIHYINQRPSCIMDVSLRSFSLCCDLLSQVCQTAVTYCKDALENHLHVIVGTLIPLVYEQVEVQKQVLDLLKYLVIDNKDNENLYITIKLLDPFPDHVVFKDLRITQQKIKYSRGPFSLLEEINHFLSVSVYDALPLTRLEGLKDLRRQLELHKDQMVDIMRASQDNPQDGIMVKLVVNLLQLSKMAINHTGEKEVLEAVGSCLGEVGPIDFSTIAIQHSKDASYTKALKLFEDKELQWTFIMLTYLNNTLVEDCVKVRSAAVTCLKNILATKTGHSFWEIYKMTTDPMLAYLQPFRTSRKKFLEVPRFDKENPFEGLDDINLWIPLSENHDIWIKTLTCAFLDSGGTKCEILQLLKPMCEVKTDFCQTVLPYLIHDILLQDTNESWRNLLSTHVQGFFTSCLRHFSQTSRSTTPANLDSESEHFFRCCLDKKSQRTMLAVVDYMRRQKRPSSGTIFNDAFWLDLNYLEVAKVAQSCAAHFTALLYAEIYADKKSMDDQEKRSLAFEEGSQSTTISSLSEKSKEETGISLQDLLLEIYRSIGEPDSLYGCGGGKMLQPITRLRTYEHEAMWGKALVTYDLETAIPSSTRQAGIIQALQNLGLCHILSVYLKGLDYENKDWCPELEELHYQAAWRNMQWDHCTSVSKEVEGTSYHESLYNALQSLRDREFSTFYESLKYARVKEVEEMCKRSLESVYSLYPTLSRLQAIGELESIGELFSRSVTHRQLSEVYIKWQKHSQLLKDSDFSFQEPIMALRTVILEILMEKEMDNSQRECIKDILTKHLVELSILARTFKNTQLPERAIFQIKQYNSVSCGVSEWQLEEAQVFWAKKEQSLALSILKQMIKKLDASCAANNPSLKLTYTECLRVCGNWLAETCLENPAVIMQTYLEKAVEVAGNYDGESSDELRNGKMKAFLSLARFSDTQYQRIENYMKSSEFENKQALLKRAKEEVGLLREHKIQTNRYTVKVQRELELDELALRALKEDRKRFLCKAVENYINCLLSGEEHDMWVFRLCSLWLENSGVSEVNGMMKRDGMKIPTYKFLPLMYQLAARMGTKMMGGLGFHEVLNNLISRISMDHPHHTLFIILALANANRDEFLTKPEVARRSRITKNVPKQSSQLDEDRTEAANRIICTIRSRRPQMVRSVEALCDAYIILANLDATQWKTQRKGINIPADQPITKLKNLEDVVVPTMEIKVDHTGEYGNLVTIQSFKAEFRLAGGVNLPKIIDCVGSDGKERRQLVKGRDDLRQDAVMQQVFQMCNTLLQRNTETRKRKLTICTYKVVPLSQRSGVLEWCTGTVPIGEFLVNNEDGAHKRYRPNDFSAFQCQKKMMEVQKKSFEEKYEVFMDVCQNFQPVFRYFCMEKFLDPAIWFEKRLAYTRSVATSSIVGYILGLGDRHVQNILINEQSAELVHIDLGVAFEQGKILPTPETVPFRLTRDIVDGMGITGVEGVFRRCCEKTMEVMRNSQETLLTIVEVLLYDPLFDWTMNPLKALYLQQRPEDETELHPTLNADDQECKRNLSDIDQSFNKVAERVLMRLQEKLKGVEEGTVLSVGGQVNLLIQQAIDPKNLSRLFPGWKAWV
# ATM and HIF1α interaction, sequence (Q16665 whole entry): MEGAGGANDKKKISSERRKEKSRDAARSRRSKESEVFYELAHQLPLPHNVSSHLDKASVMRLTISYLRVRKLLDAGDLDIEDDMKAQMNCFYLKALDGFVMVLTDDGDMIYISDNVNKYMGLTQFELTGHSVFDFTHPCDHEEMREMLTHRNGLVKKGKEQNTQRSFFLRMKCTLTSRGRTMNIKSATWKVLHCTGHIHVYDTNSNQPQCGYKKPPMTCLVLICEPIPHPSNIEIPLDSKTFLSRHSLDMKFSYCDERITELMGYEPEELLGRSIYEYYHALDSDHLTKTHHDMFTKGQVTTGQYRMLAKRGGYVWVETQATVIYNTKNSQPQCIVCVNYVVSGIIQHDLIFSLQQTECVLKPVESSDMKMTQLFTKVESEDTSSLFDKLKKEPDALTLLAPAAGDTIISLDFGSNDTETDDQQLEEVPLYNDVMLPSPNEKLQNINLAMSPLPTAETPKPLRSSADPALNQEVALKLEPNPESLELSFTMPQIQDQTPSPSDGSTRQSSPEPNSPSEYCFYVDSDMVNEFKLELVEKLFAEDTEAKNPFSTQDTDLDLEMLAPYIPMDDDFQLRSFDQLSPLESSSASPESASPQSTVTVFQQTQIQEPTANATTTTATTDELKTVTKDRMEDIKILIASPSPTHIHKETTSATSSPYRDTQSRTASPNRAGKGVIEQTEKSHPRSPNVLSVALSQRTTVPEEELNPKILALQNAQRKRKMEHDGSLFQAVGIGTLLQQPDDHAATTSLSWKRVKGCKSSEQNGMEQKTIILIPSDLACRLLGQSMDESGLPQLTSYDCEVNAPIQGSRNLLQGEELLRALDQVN
# ATM and TRAF6 interaction, sequence (Q13315 2-3056 limits assumed): as the sequence (Q13315 2-3056 limits assumed) above
# ATM and TRAF6 interaction, sequence (Q9Y4K3 whole entry): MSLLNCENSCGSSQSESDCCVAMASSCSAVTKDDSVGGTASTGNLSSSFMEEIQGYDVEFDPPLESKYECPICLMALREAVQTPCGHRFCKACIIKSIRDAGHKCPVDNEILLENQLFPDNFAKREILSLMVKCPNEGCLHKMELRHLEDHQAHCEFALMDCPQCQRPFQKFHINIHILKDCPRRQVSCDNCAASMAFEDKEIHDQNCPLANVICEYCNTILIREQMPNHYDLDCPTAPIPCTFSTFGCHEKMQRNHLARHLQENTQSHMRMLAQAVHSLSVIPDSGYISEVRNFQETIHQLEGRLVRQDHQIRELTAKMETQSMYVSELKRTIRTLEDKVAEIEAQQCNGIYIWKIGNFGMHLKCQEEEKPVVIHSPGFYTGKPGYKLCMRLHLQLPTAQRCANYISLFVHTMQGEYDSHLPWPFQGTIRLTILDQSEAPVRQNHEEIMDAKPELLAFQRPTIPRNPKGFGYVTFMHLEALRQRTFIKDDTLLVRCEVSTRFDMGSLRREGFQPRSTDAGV
compound,measurement,setting,value
"O=C1c2c(O)ccc(O)c2C(=O)c2c(NCCNCCO)ccc(NCCNCCO)c21 [MIT, mitoxantrone]",DNA damage (DDR) in cancer cells,[1],substantial
same,apoptosis / cell death in cancer cells,[1],substantial
same,effect on PC3-only tumors,[2],caused shrinkage
same,expression of typical SASP factors in tumors,"[3]; IL6, IL8, AREG, IL1a, MMP1, MMP3, ANGPTL4, SPINK1",significant upregulation
same,typical senescence markers in tumors,"[3]; p16^INK4a, p21^CIP1 and SA-β-GAL",induction
same,circulating EREG level,[4],elevated levels
same,tissue senescence by SA-β-GAL staining,[5],considerable tissue senescence
same,circulating AREG level,[6],elevated levels
same,tumor sizes in contrast to placebo,"[7]; 8-week regimen, MIT on 1st day of 3rd, 5th, 7th week",remarkably reduced tumor sizes
same,tumor volume decrease,"[7]; PC3/PSC27 tumors, MIT alone, end of 8th week",35.5%
"CC[C@]1(O)C[C@H]2CN(CCc3c([nH]c4ccccc34)[C@@](C(=O)OC)(c3cc4c(cc3OC)N(C=O)[C@H]3[C@@](O)(C(=O)OC)[C@H](OC(C)=O)[C@]5(CC)C=CCN6CC[C@]43[C@@H]65)C2)C1 [VIN, vincristine]",outcome of combination of the chemotherapeutic drug with rutin and rapamycin,[8],did not exhibit the characteristics of effective drug combination therapy
COc1cccc2c1C(=O)c1c(O)c3c(c(O)c1C2=O)C[C@@](O)(C(=O)CO)C[C@@H]3O[C@H]1C[C@H](N)[C@H](O)[C@H](C)O1 [doxorubicin],outcome of combination of the chemotherapeutic drug with rutin and rapamycin,[8],largely reproduced the results of preclinical experiments performed with PCa system
CO[C@H]1C[C@@H]2CC[C@@H](C)[C@@](O)(O2)C(=O)C(=O)N2CCCC[C@H]2C(=O)O[C@H]([C@H](C)C[C@@H]2CC[C@@H](O)[C@H](OC)C2)CC(=O)[C@H](C)/C=C(\C)[C@@H](O)[C@@H](OC)C(=O)[C@H](C)C[C@H](C)/C=C/C=C/C=C/1C [rapamycin],effect on PC3-only tumors,[2],did not show a remarkable effect
C[C@@H]1O[C@@H](OC[C@H]2O[C@@H](Oc3c(-c4ccc(O)c(O)c4)oc4cc(O)cc(O)c4c3=O)[C@H](O)[C@@H](O)[C@@H]2O)[C@H](O)[C@H](O)[C@H]1O [rutin],"expression of interleukin 8 (IL8), a hallmark SASP factor (senomorphic potential)",[9],prominent efficacy in downregulating
same,tumor volumes after pretreatment of PSC27^SEN cells in vitro,[10],considerably reduced tumor volumes
same,cytoplasm-to-nucleus translocation of p65 and p50 upon cellular senescence,[11],largely abolished
same,cancer resistance conferred by the CM of senescent stromal cells,[12],remarkably downregulate cancer resistance
same,effect on PC3-only tumors,[2],did not show a remarkable effect
same,concentration with the most optimal effects in restraining expression of typical SASP components,[13],100 µM
same,genes down-regulated,[14]; [24],3733 genes
same,genes up-regulated,[14]; [24],886 genes
same,transcriptome-wide expression of SASP factors,"[14]; RNA-seq, senescent PSC27 cells treated with rutin",most of the SASP factors were indeed downregulated
same,GSEA SASP signature,[14]; senescent PSC27 cells treated with rutin,specifically and significantly inhibited SASP
same,transcripts downregulated,[14]; [25],3733 transcripts
same,transcripts significantly modified,[14]; [25],4619 transcripts
same,transcripts upregulated,[14]; [25],886 transcripts
same,SA-β-Gal staining,[15],remained largely unchanged
same,BrdU incorporation,[16],remained largely unchanged
same,ROS generation by senescent cells,"[17]; PSC27, BLEO-induced senescent",significantly suppressed
same,production of ROS in proliferating cells,"[17]; PSC27, proliferating",did not change
same,"gain-of-functions (proliferation, migration, invasion; malignancy) conferred by CM from senescent PSC27 cells",[18],almost completely disappeared
same,tissue senescence by SA-β-GAL staining,[5],neither promote nor suppress senescence
same,ATM activation / phosphorylation,[19],remained largely unaffected
same,"TAK1 phosphorylation, p38MAPK activation, PI3K/Akt/mTOR activation and IL8 upregulation after BLEO",[19]; in the presence of rutin,generally diminished
same,counteraction of the increase in cancer cell viability upon senescent stromal cell-derived CM,[20],about 80%
same,TAK1 activation and TRAF6-TAK1 interaction,[21],considerably restrained
same,interaction of ATM and TRAF6,[22],significantly weakens
same,mutual interaction between ATM and HIF1α,[23],subject to interruption
CC[C@]1(O)C[C@H]2CN(CCc3c([nH]c4ccccc34)[C@@](C(=O)OC)(c3cc4c(cc3OC)N(C=O)[C@H]3[C@@](O)(C(=O)OC)[C@H](OC(C)=O)[C@]5(CC)C=CCN6CC[C@]43[C@@H]65)C2)C1 [vincristine],benefit of the chemotherapeutic drug from combined use of rutin and/or rapamycin,[7]; PC3 and PC3/PSC27 tumors,did not show such benefits
bleomycin [reference compound],SA-β-Gal staining,[15],elevated positivity
same,BrdU incorporation,[16],reduced BrdU incorporation
same,ROS levels in contrast to normal counterparts,[17]; PSC27 cells after BLEO genotoxicity,remarkably elevated ROS levels
same,ATM activation / phosphorylation,[19],markedly activated

# Reference: patent publication US20240358732A1, “Use of Rutin and Rapamycin in the Preparation of Synergistic Chemotherapy Drugs for Tumor Inhibition” (priority 2023, published 2024)
